The values below come from patent US11370761B2, “Voltage-dependent T-type calcium channel inhibitor” (Nippon Chemiphar Co., Ltd., priority 2017, dated 2022).

pIC50: −log10 of the molar value. Some results are limits rather than exact numbers.

T1 sequence (O95180 whole entry): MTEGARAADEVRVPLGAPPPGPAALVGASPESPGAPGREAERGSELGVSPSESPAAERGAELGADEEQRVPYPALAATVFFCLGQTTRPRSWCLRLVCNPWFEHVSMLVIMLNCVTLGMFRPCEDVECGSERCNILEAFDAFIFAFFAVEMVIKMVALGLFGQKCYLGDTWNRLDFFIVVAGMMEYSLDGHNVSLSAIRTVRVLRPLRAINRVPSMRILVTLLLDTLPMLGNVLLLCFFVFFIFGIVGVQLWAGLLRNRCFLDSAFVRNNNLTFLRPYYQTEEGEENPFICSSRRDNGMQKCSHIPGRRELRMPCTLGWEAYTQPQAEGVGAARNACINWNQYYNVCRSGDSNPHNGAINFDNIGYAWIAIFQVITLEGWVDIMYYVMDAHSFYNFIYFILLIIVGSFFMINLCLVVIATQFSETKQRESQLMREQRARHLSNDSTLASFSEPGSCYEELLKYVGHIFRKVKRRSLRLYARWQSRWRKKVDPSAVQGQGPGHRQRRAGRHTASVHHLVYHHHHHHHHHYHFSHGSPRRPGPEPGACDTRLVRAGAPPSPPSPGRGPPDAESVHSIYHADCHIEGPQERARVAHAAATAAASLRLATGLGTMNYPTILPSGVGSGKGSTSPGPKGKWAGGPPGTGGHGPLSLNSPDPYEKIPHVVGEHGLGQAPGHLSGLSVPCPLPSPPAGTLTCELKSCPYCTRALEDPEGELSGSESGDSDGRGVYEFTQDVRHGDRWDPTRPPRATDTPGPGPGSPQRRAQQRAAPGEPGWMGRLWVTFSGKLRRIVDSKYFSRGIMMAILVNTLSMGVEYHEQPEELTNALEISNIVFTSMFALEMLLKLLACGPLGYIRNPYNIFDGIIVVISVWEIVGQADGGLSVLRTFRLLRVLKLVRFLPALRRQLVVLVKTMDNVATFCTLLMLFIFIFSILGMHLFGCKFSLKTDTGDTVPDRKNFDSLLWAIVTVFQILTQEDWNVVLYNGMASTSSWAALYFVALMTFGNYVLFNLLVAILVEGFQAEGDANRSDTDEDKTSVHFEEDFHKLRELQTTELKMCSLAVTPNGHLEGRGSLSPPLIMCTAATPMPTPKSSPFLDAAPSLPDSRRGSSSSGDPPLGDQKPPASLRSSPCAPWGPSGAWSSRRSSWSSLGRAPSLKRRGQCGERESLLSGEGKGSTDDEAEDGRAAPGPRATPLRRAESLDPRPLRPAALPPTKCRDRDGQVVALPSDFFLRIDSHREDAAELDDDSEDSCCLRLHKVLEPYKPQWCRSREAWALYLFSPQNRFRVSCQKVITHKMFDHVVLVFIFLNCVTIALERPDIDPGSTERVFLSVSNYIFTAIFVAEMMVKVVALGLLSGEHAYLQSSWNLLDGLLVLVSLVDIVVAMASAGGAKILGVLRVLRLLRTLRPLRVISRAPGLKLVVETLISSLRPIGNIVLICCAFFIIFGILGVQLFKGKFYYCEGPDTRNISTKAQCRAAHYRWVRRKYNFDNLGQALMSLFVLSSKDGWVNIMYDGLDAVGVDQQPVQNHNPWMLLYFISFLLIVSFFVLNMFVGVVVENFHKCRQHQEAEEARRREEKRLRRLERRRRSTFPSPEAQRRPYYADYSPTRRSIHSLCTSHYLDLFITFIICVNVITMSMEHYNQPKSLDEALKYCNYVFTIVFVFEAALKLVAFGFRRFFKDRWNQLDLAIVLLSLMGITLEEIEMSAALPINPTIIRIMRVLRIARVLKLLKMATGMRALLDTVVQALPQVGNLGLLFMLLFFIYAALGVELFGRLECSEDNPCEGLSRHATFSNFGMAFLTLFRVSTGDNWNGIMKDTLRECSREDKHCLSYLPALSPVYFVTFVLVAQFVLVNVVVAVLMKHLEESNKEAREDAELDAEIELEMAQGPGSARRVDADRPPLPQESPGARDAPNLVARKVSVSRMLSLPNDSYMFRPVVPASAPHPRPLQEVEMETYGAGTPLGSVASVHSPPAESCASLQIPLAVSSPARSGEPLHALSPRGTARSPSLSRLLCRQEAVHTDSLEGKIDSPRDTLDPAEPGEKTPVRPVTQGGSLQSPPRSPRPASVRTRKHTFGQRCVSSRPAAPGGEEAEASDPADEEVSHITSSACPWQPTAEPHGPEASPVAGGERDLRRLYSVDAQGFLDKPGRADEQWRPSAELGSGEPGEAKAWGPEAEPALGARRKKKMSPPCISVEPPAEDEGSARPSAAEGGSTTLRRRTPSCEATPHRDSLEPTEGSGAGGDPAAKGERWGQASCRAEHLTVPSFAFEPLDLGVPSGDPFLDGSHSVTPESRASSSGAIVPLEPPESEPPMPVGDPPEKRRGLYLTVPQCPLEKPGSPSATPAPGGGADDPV

The assay concerns the target T1, human Cav3.2 channel (Homo sapiens, UniProt O95180).
T1 construct: expressed in transfected cells
In words: Intracellular calcium concentration measurement in human Cav3.2 channel expressing stable cell line (Pharmacological Test 1). Format: cell-based. Particulars: HEK293 cells stably expressing human Cav3.2, Fluo-4 AM fluorescence, KCl stimulation; read-out: Cav3.2 channel inhibitory action. From the text: (1) Construction of Human Cav3.2 Channel Expressing Stable Cell Line
A sequence in which a HindIII site and a kozak sequence (GCCACC) was provided on a 5′ side of a human Cav3.2 channel open reading frame (ORF) gene and a KpnI site was provided on a 3′ side thereof was incorporated into pcDNA3.1(+) (Thermo Fisher Scientific #V790-20), and the resultant was transfected into a HEK293 cell (ATCC No. CRL-1573) according to a protocol of FuGENE (registered trademark) HD Transfection Reagent (Promega #E2311).
(2) Method of Measuring Intracellular Calcium Concentration
The human Cav3.2 channel expressing stable cell line prepared by the test method (1) was seeded in a 96-well plate using a Dulbecco's modified Eagle's medium (DMEM medium) containing 10% fetal bovine serum (FBS), followed by culturing 37° C. for 48 hours under a 5% CO2 condition. Thereafter, the medium was removed, and each well washed with an A buffer was treated with 80 μL of a fluorescent dye solution containing a liquid mixture of 22 μg of a calcium fluorescent indicator Fluo-4 AM (Dojindo Molecular Technologies, Inc., #F311), 20 μL of dimethyl sulfoxide (DMSO), 1 μL of 10% Pluronic F-127 (Thermo Fisher Scientific #P6866), and 4 mL of the A buffer. After being left to stand for 45 minutes at room temperature under a light shielding condition, the cells were washed with a B buffer. In DMSO having the same final concentration as the test compound as a negative control, and the test compound dissolved in DMSO to have a final concentration of 0.1%, each test compound concentration solution containing the B buffer was added to each well. The cells were left to stand for additional 15 minutes at room temperature under a light shielding condition, and were measured using microplate reader EnVision (PerkinElmer Co., Ltd.) by the following method. First, after measuring background fluorescence in each well, an ionophore was added, and baseline fluorescence was measured. Thereafter, B buffer containing added KCl at a concentration of 83.8 mM was added to each well, and an increase in fluorescence due to calcium influx caused by the stimulation was measured for 10 seconds. Inhibition percentage was calculated from the maximum fluorescence increase value from the baseline, and an IC50 value was calculated by plotting a logarithmic value of the test compound concentration and inhibition activity. The measurement was performed by observing fluorescence of 510 nm emitted when the cells were irradiated with excitation light of 485 nm.
A buffer: 140 mM NaCl, 5 mM KCl, 1 mM MgCl2, 0.5 mM CaCl2, 10 mM Glucose, 10 mM HEPES, pH 7.3
B buffer: potassium equilibrium potential: −92 mV
As for `CCCc1ccc(NC(=O)C(C)NC(=O)C2CC2c2nc3ccccc3[nH]2)cc1` (single isomer, unassigned) [Example 1B, Trans-2-(1H-benzo[d]imidazol-2-yl)-N-(1-oxo-1-((4-propylphenyl)amino)propan-2-yl) cyclopropane-1-carboxamide], the pIC50 was 6.00 to 7.00. In the case of `CCCc1ccc(NC(=O)C(C)NC(=O)C2CC2c2nc3ccccc3[nH]2)cc1` (single isomer, unassigned) [Example 2A, Trans-2-(1H-benzo[d]imidazol-2-yl)-N-(1-oxo-1-((4-propylphenyl)amino)propan-2-yl) cyclopropane-1-carboxamide] it was 6.00 to 7.00.

For `CCCc1ccc(NC(=O)C(C)NC(=O)C2CC2c2nc3ccccc3[nH]2)cc1` (single isomer, unassigned) [Example 2B, Trans-2-(1H-benzo[d]imidazol-2-yl)-N-(1-oxo-1-((4-propylphenyl)amino)propan-2-yl) cyclopropane-1-carboxamide], the pIC50 is below 5.00.

On to `CC(NC(=O)C1CC1c1nc2ccccc2[nH]1)C(=O)Nc1ccc(C(F)(F)F)nc1` (single isomer, unassigned) [Example 5B, Trans-2-(1H-benzo[d]imidazol-2-yl)-N-(1-oxo-1-((6-(trifluoromethyl)pyridin-3-yl)amino)propan-2-yl) cyclopropane-1-carboxamide], for which the pIC50 was 6.00 to 7.00. In the case of `CC(NC(=O)C1CC1c1nc2ccccc2[nH]1)C(=O)Nc1ccc(C#N)cc1` (single isomer, unassigned) [Example 6A, Trans-2-(1H-benzo[d]imidazol-2-yl)-N-(1-((4-cyanophenyl)amino)-1-oxopropan-2-yl) cyclopropane-1-carboxamide] it was 5.00 to 6.00; in that of `CC(NC(=O)C1CC1c1nc2ccccc2[nH]1)C(=O)Nc1ccc(C#N)cc1` (single isomer, unassigned) [Example 6B, Trans-2-(1H-benzo[d]imidazol-2-yl)-N-(1-((4-cyanophenyl)amino)-1-oxopropan-2-yl) cyclopropane-1-carboxamide], 5.00 to 6.00; in that of `CC(NC(=O)C1CC1c1nc2ccccc2[nH]1)C(=O)Nc1ccc(C(C)(C)C)cc1` (single isomer, unassigned) [Example 7B, Trans-2-(1H-benzo[d]imidazol-2-yl)-N-(1-((4-(tert-butyl)phenyl)amino)-1-oxopropan-2-yl) cyclopropane-1-carboxamide], 6.00 to 7.00. In the case of `CC(NC(=O)C1CC1c1nc2ccccc2[nH]1)C(=O)N(C)c1ccc(C(F)(F)F)cc1` (single isomer, unassigned) [Example 8A, Trans-2-(1H-benzo[d]imidazol-2-yl)-N-(1-(methyl(4-(trifluoromethyl)phenyl)amino)-1-oxopropan-2-yl) cyclopropane-1-carboxamide] it was 6.00 to 7.00; in that of `CC(NC(=O)C1CC1c1nc2ccccc2[nH]1)C(=O)N(C)c1ccc(C(F)(F)F)cc1` (single isomer, unassigned) [Example 8B, Trans-2-(1H-benzo[d]imidazol-2-yl)-N-(1-(methyl(4-(trifluoromethyl)phenyl)amino)-1-oxopropan-2-yl) cyclopropane-1-carboxamide], 5.00 to 6.00. In the case of `CC(NC(=O)C1CC1c1nc2ccccc2[nH]1)C(=O)Nc1ccc(Cl)cc1` (single isomer, unassigned) [Example 16A, Trans-2-(1H-benzo[d]imidazol-2-yl)-N-(1-((4-chlorophenyl)amino)-1-oxopropan-2-yl) cyclopropane-1-carboxamide] it was 6.00 to 7.00.

As to `CC(NC(=O)C1CC1c1nc2ccccc2[nH]1)C(=O)Nc1ccc(Cl)cc1` (single isomer, unassigned) [Example 16B, Trans-2-(1H-benzo[d]imidazol-2-yl)-N-(1-((4-chlorophenyl)amino)-1-oxopropan-2-yl) cyclopropane-1-carboxamide], the pIC50 is 5.00 to 6.00. In the case of `CC(NC(=O)C1CC1c1nc2ccccc2[nH]1)C(=O)Nc1cnc(Br)cn1` (single isomer, unassigned) [Example 18B, Trans-2-(1H-benzo[d]imidazol-2-yl)-N-(1-((5-bromopyrazin-2-yl)amino)-1-oxopropan-2-yl) cyclopropane-1-carboxamide] it was below 5.00; in that of `O=C(Nc1ccc(C(F)(F)F)cc1)C1CCCN1C(=O)C1CC1c1nc2ccccc2[nH]1` (single isomer, unassigned) [Example 19A, Trans-1-(2-(1H-benzo[d]imidazol-2-yl)cyclopropane-1-carbonyl)-N-(4-(trifluoromethyl)phenyl)pyrrolidine-2-carboxamide], 5.00 to 6.00. In the case of `O=C(Nc1ccc(C(F)(F)F)cc1)C1CCCN1C(=O)C1CC1c1nc2ccccc2[nH]1` (single isomer, unassigned) [Example 19B, Trans-1-(2-(1H-benzo[d]imidazol-2-yl)cyclopropane-1-carbonyl)-N-(4-(trifluoromethyl)phenyl)pyrrolidine-2-carboxamide] it was 5.00 to 6.00. As to `O=C(NC1CCN(c2ccc(C(F)(F)F)cc2)C1=O)[C@H]1C[C@@H]1c1nc2ccccc2[nH]1` (single isomer, unassigned) [Example 23A], the pIC50 is 5.00 to 6.00. In the case of `O=C(NC1CCN(c2ccc(C(F)(F)F)cc2)C1=O)[C@H]1C[C@@H]1c1nc2ccccc2[nH]1` (single isomer, unassigned) [Example 23B] it was 6.00 to 7.00; in that of `COCC(NC(=O)[C@H]1C[C@@H]1c1nc2ccccc2[nH]1)C(=O)Nc1ccc(F)c(C(F)(F)F)c1` (single isomer, unassigned) [Example 32A], 6.00 to 7.00; in that of `COCC(NC(=O)[C@H]1C[C@@H]1c1nc2ccccc2[nH]1)C(=O)Nc1ccc(F)c(C(F)(F)F)c1` (single isomer, unassigned) [Example 32B], 6.00 to 7.00. For `O=C(NC1CC(=O)N(c2ccc(C(F)(F)F)nc2)C1)[C@H]1C[C@@H]1c1nc2ccccc2[nH]1` (single isomer, unassigned) [Example 33A], the pIC50 was 5.00 to 6.00.

As for `O=C(NC1CC(=O)N(c2ccc(C(F)(F)F)nc2)C1)[C@H]1C[C@@H]1c1nc2ccccc2[nH]1` (single isomer, unassigned) [Example 33B], the pIC50 is 5.00 to 6.00. For `CC(NC(=O)C1CC1c1nc2ccccc2[nH]1)C(=O)Nc1cccc(C(F)(F)F)c1` (single isomer, unassigned) [Example 38A, Trans-2-(1H-benzo[d]imidazol-2-yl)-N-(1-oxo-1-((3-(trifluoromethyl)phenyl)amino)propan-2-yl) cyclopropane-1-carboxamide], the pIC50 was at least 7.00.

As for `CC(NC(=O)C1CC1c1nc2ccccc2[nH]1)C(=O)Nc1cccc(C(F)(F)F)c1` (single isomer, unassigned) [Example 38B, Trans-2-(1H-benzo[d]imidazol-2-yl)-N-(1-oxo-1-((3-(trifluoromethyl)phenyl)amino)propan-2-yl) cyclopropane-1-carboxamide], the pIC50 is at least 7.00. In the case of `CC(C)Oc1ccc(NC(=O)C(C)NC(=O)C2CC2c2nc3ccccc3[nH]2)cc1` (stereo not drawn) [Example 3, Trans-2-(1H-benzo[d]imidazol-2-yl)-N-(1-((4-isopropoxyphenyl)amino)-1-oxopropan-2-yl) cyclopropane-1-carboxamide] it was 5.00 to 6.00; in that of `CC(NC(=O)C1CC1c1nc2ccccc2[nH]1)C(=O)NCc1ccc(S(C)(=O)=O)cc1` (stereo not drawn) [Example 9, Trans-2-(1H-benzo[d]imidazol-2-yl)-N-(1-((4-(methylsulfonyl)benzyl)amino)-1-oxopropan-2-yl) cyclopropane-1-carboxamide], below 5.00. In the case of `CC(NC(=O)C1CC1c1nc2ccccc2[nH]1)C(=O)NC1CN(C(=O)OC(C)(C)C)C1` (stereo not drawn) [Example 10, tert-Butyl trans-3-(2-(2-(1H-benzo[d]imidazol-2-yl)cyclopropane-1-carboxamido)propanamido)azetidine-1-carboxylate] it was below 5.00.

Regarding `CC(NC(=O)C1CC1c1nc2ccccc2[nH]1)C(=O)NC1CCN(C(=O)OC(C)(C)C)CC1` (stereo not drawn) [Example 11, tert-Butyl trans-4-(2-(2-(1H-benzo[d]imidazol-2-yl)cyclopropane-1-carboxamido)propanamido)piperidine-1-carboxylate], the pIC50 was 5.00 to 6.00.
